Laboratory results as given in ChEMBL document CHEMBL5241112, “Insights into the recent progress in the medicinal chemistry of pyranopyrimidine analogs” (RSC Med Chem, 2022).
Converted amounts (≈) assume the structure as drawn. Each block holds one compound with its values, some of them ahead of it.

Experiments:
[1] = tested on: HCT-116; assay: Anticancer activity against human HCT-116 cells assessed as reduction in cell viability incubated for 96 hrs by MTT assay; type: functional, cell-based; conditions: HCT-116, 96 h
[2] = tested on: Escherichia coli; assay: Antimicrobial activity against Escherichia coli ATCC 25922 assessed as diameter of inhibition zone at 20 mg/ml incubated for 24 hrs by disk diffusion method; type: functional; conditions: read-out: DIZ
[3] = tested on: Aspergillus niger; assay: Antifungal activity against Aspergillus niger assessed as inhibition of fungal growth; type: functional
[4] = tested on: Klebsiella pneumoniae; assay: Antimicrobial activity against Klebsiella pneumoniae ATCC 15380 assessed as diameter of inhibition zone at 20 mg/ml incubated for 24 hrs by disk diffusion method; type: functional; conditions: read-out: DIZ
[5] = tested on: Aspergillus flavus; assay: Antifungal activity against Aspergillus flavus assessed as inhibition of fungal growth; type: functional
[6] = tested on: Candida albicans; assay: Antifungal activity against Candida albicans assessed as inhibition of fungal growth; type: functional
[7] = tested on: Salmonella typhimurium; assay: Antimicrobial activity against Salmonella typhimurium ATCC 19430 assessed as diameter of inhibition zone at 20 mg/ml incubated for 24 hrs by disk diffusion method; type: functional, Salmonella enterica subsp. enterica serovar Typhimurium; conditions: Salmonella enterica, read-out: DIZ
[8] = Antioxidant activity assessed as DPPH radical scavenging activity at 75 ug/ml incubated for 30 mins by spectrophotometric analysis; type: functional; conditions: dose 75.0 µg/ml
[9] = Antioxidant activity assessed as DPPH radical scavenging activity at 100 ug/ml incubated for 30 mins by spectrophotometric analysis; type: functional; conditions: dose 100.0 µg/ml
[10] = Antioxidant activity assessed as DPPH radical scavenging activity at 12 ug incubated for 30 mins by spectrophotometric analysis; type: functional; conditions: dose 12.0 µg
[11] = tested on: Escherichia coli; assay: Antibacterial activity against Escherichia coli NCIM 2066 assessed as diameter of inhibition zone incubated for 24 hrs by agar well diffusion method; type: functional
[12] = tested on: Staphylococcus aureus; assay: Antibacterial activity against Staphylococcus aureus NCIM 2654 assessed as diameter of inhibition zone incubated for 24 hrs by agar well diffusion method; type: functional
[13] = tested on: Candida albicans; assay: Antifungal activity against Candida albicans assessed as diameter of inhibition zone incubated for 48 hrs by agar well diffusion method; type: functional
[14] = tested on: Escherichia coli; assay: Antibacterial activity against Escherichia coli assessed as diameter of inhibition zone at 100 ug/ml by disc diffusion method; type: functional; conditions: read-out: DIZ
[15] = tested on: Candida albicans; assay: Antifungal activity against Candida albicans assessed as diameter of inhibition zone at 100 ug/ml by agar disc diffusion method; type: functional; conditions: read-out: DIZ
[16] = tested on: Staphylococcus aureus; assay: Antibacterial activity against Staphylococcus aureus assessed as diameter of inhibition zone at 100 ug/ml by disc diffusion method; type: functional; conditions: read-out: DIZ
[17] = tested on: Pseudomonas aeruginosa; assay: Antibacterial activity against Pseudomonas aeruginosa assessed as inhibition of bacterial growth; type: functional
[18] = tested on: Escherichia coli; assay: Antibacterial activity against Escherichia coli assessed as inhibition of bacterial growth; type: functional
[19] = tested on: Staphylococcus aureus; assay: Antibacterial activity against Staphylococcus aureus assessed as inhibition of bacterial growth; type: functional
[20] = tested on: Klebsiella pneumoniae; assay: Antibacterial activity against Klebsiella pneumoniae assessed as diameter of inhibition zone at 100 ug/ml by disc diffusion method; type: functional; conditions: read-out: DIZ
[21] = tested on: Aspergillus flavus; assay: Antifungal activity against Aspergillus flavus assessed as diameter of inhibition zone at 100 ug/ml by agar disc diffusion method; type: functional; conditions: read-out: DIZ
[22] = tested on: Escherichia coli; assay: Antimicrobial activity against Escherichia coli assessed as diameter of inhibition zone at 5.0 mg/ml incubated for 12 hrs by agar disk diffusion method; type: functional; conditions: read-out: DIZ
[23] = tested on: Escherichia coli; assay: Antimicrobial activity against Escherichia coli assessed as diameter of inhibition zone at 2.5 mg/ml incubated for 12 hrs by agar disk diffusion method; type: functional; conditions: read-out: DIZ
[24] = tested on: Staphylococcus aureus; assay: Antimicrobial activity against Staphylococcus aureus assessed as diameter of inhibition zone at 5.0 mg/ml incubated for 12 hrs by agar disk diffusion method; type: functional; conditions: read-out: DIZ
[25] = tested on: Pseudomonas aeruginosa; assay: Antimicrobial activity against Pseudomonas aeruginosa assessed as diameter of inhibition zone at 1.2 mg/ml incubated for 12 hrs by agar disk diffusion method; type: functional; conditions: read-out: DIZ
[26] = tested on: Bacillus cereus; assay: Antimicrobial activity against Bacillus cereus assessed as diameter of inhibition zone at 2.5 mg/ml incubated for 12 hrs by agar disk diffusion method; type: functional; conditions: read-out: DIZ
[27] = tested on: Pseudomonas aeruginosa; assay: Antimicrobial activity against Pseudomonas aeruginosa assessed as diameter of inhibition zone at 2.5 mg/ml incubated for 12 hrs by agar disk diffusion method; type: functional; conditions: read-out: DIZ
[28] = tested on: Bacillus cereus; assay: Antimicrobial activity against Bacillus cereus assessed as diameter of inhibition zone at 1.2 mg/ml incubated for 12 hrs by agar disk diffusion method; type: functional; conditions: read-out: DIZ
[29] = tested on: Pseudomonas aeruginosa; assay: Antimicrobial activity against Pseudomonas aeruginosa assessed as diameter of inhibition zone at 5.0 mg/ml incubated for 12 hrs by agar disk diffusion method; type: functional; conditions: read-out: DIZ
[30] = tested on: Staphylococcus aureus; assay: Antimicrobial activity against Staphylococcus aureus assessed as diameter of inhibition zone at 2.5 mg/ml incubated for 12 hrs by agar disk diffusion method; type: functional; conditions: read-out: DIZ
[31] = tested on: Bacillus cereus; assay: Antimicrobial activity against Bacillus cereus assessed as diameter of inhibition zone at 5.0 mg/ml incubated for 12 hrs by agar disk diffusion method; type: functional; conditions: read-out: DIZ
[32] = tested on: Staphylococcus aureus; assay: Antimicrobial activity against Staphylococcus aureus assessed as diameter of inhibition zone at 1.2 mg/ml incubated for 12 hrs by agar disk diffusion method; type: functional; conditions: read-out: DIZ

- IC50 [1]: 2.76 µM
- MIC [3]: 162 µg/mL (≈ 564 µM)
- MIC [5]: 150 µg/mL (≈ 520 µM)
- MIC [6]: 125 µg/mL (≈ 434 µM)
SMILES: N#CC1=C(N)Oc2[nH]c(=O)[nH]c(=O)c2C1c1cccs1 (stereo not drawn)
- zone of inhibition at 20000 µg/mL [2]: 14 mm
- zone of inhibition at 20000 µg/mL [4]: 16 mm
- zone of inhibition at 20000 µg/mL [7]: 20 mm

SMILES: O=C1O[C@H]([C@@H](O)CO)C(O)=C1O
- Activity [8]: 89.4%
- Activity [9]: 97.6%
- Activity [10]: 94.6%

SMILES: Cc1n[nH]c2c1C(c1ccccc1)c1c([nH]c(=O)[nH]c1=O)O2 (stereo not drawn)
- diameter of the inhibition zone (DIZ) [11]: 14 mm
- diameter of the inhibition zone (DIZ) [12]: 18 mm
- Activity [10]: 65.8%
- diameter of the inhibition zone (DIZ) [13]: 23 mm

SMILES: CCOC(=O)C1=C(C)Oc2nc(C)n(Cc3cn(-c4cccc([N+](=O)[O-])c4)nn3)c(=O)c2C1c1ccc([N+](=O)[O-])cc1 (stereo not drawn)
- zone of inhibition at 100 µg/mL [14]: 15 mm
- zone of inhibition at 100 µg/mL [15]: 16.5 mm
- zone of inhibition at 100 µg/mL [16]: 16 mm

SMILES: O=c1c(C2c3c(O)ncnc3Oc3[nH]nc(-c4ccccc4)c32)coc2ccccc12 (stereo not drawn)
- Activity [9]: 87.5%

- MIC [17]: 25 µg/mL (≈ 83.8 µM)
- MIC [18]: 75 µg/mL (≈ 251 µM)
- MIC [3]: 162 µg/mL (≈ 545 µM)
- MIC [5]: 150 µg/mL (≈ 503 µM)
- MIC [19]: 25 µg/mL (≈ 83.8 µM)
- MIC [6]: 125 µg/mL (≈ 419 µM)
SMILES: N#CC1=C(N)Oc2[nH]c(=O)[nH]c(=O)c2C1c1ccccc1O (stereo not drawn)

SMILES: N=c1c2c(ncn1N)Oc1[nH]nc(-c3ccccc3)c1C2c1coc2ccccc2c1=O (stereo not drawn)
- Activity [8]: 85.5%

SMILES: CCOC(=O)C1=C(C)Oc2nc(C)n(Cc3cn(-c4cccc(F)c4)nn3)c(=O)c2C1c1ccc([N+](=O)[O-])cc1 (stereo not drawn)
- zone of inhibition at 100 µg/mL [14]: 15.5 mm
- zone of inhibition at 100 µg/mL [20]: 14.5 mm
- zone of inhibition at 100 µg/mL [16]: 14.5 mm
- zone of inhibition at 100 µg/mL [21]: 14.5 mm

- MIC [17]: 87.5 µg/mL (≈ 295 µM)
- MIC [18]: 25 µg/mL (≈ 84.4 µM)
- MIC [3]: 162 µg/mL (≈ 548 µM)
- MIC [5]: 150 µg/mL (≈ 506 µM)
- MIC [19]: 25 µg/mL (≈ 84.4 µM)
- MIC [6]: 125 µg/mL (≈ 422 µM)
SMILES: N#CC1=C(N)Oc2[nH]c(=O)[nH]c(=O)c2C1Cc1ccccc1 (stereo not drawn)

SMILES: CC(=O)N1CCN(c2ccc(OCC3COC(Cn4ccnc4)(c4ccc(Cl)cc4Cl)O3)cc2)CC1 (stereo not drawn) [KETOCONAZOLE]
- zone of inhibition at 100 µg/mL [15]: 20.5 mm
- zone of inhibition at 100 µg/mL [21]: 18.5 mm

SMILES: N#CC1=C(N)Oc2[nH]c(=O)[nH]c(=O)c2C1c1ccncc1 (stereo not drawn)
- zone of inhibition at 5000 µg/mL [22]: 17 mm
- zone of inhibition at 2500 µg/mL [23]: 13 mm
- zone of inhibition at 5000 µg/mL [24]: 14 mm
- zone of inhibition at 1200 µg/mL [25]: 12 mm
- zone of inhibition at 2500 µg/mL [26]: 15 mm
- zone of inhibition at 2500 µg/mL [27]: 16 mm
- zone of inhibition at 1200 µg/mL [28]: 10 mm
- zone of inhibition at 5000 µg/mL [29]: 19 mm
- zone of inhibition at 2500 µg/mL [30]: 10 mm
- zone of inhibition at 5000 µg/mL [31]: 19 mm
- zone of inhibition at 1200 µg/mL [32]: 8 mm
